Experimental data: patent US10244779B2, “Method of improving stability of sweet enhancer and composition containing stabilized sweet enhancer” (SENOMYX, INC., priority 2010, dated 2019)
Blank lines part the entries; values can stand above or below the molecule they belong to.

How the values were obtained:
[1] = Photostability test of sweet enhancers with/without photostabilizers in Q-Sun Xenon Test Chamber
Experimental: Aqueous buffer solution at pH 7.1 contains 50 mM potassium dihydrogen phosphate and ˜32 mM sodium hydroxide (solutions of 1.0 M hydrochloric acid and 1.0 M sodium hydroxide are used to adjust pH). Aqueous buffer solution at pH 4.0 contains 50 mM citric acidmonosodium salt and ˜7.4 mM sodium hydroxide (solutions of 1.0 M hydrochloric acid and 1.0 M sodium hydroxide are used to adjust pH). Aqueous buffer solution at pH 2.8 contains 50 mM citric acid and ˜16 mM sodium hydroxide (solutions of 1.0 M hydrochloric acid and 1.0 M sodium hydroxide are used to adjust pH).
The stock solutions of the test compounds at 25 mM are made by dissolving the compounds in dimethyl sulfoxide. The solutions of the stabilizers are made by dissolving the materials in the aqueous buffers. The stock solutions are then diluted to 25 μM with the stabilizer solutions to prepare the test solution and 4-mL aliquots of the solutions are transferred to 20-mL clear glass vial for testing.
Accelerated photodegradation was studied using a Q-Sun Xenon Test Chamber (Q-Lab Model No. Xe-1-SC) at an irradiance setting of 350 mW/m^2 at 340 nm and temperature of 25 degrees Celsius. To put this in perspective, 24 hours of constant Q-Sun irradiation at these settings is approximately equivalent to 12.4 days of direct sunlight in the southwestern United States. At 0, 1, 2, 4, and 6 hours from the beginning of the radiation, a 0.4-mL aliquot from each vial is pippeted out to a 1-mL glass insert for analysis.
The samples are analyzed using an Agilent 1100 LC/MSD equipped with a quaternary pump and a diode-array detector (DAD). The peak areas from the MSD chromatograms are used for quantitation, and the photostability is shown by plotting the percentages of the test compound which remains intact at all time points. The peak areas from the DAD chromatograms are used for quantitation for stabilizers with concentration at 250 uM or higher. The instrument conditions are listed below. • Column: YMC ODS AQ 3 um, 4.0×23 mm • Column Temperature: Room temperature • Auto-sampler Temperature: Room temperature • Mobile Phase A: Water • Mobile Phase B: Methanol • Mobile Phase C: 1% Formic Acid • Gradient: % C is constant at 5%; % B from 5% to 95% in 2 min, then back to 5% at 2.1 min, and then held at 5% until 3.25 min; flow rate is 2 mL/min • Injection volume: 10 uL • Data Collection time: 2.75 minutes • MSD ion source: APCI • MSD Signal settings: Positive, selected ion monitoring (SIM) at the mass of the expected molecular ions. • UV detection wavelength: 230 nm. • MSD detection start time: 0.5 min
FIGS. 2 and 3 illustrate the photostability study of Compounds A and B under these condition: Direct sunlight was modeled using a Q-Sun Xenon Test Chamber (Q-Lab Model No. Xe-1-SC) at an irradiance setting of 350 mW/m^2 @340 nm, 25° C. Test samples were irradiated in the Q-Sun at these settings in pH 2.8 buffer with/without Compounds A and B in the presence/absence of the photo-stabilizers A (chlorogenic acid) and B (rutin, a.k.a. quercetin-3-rutinoside).
Direct sunlight was modeled using a Q-Sun Xenon Test Chamber (Q-Lab Model No. Xe-1-SC) at an irradiance setting of 350 mW/m^2 @340 nm, 25° C. Test samples were irradiated in the Q-Sun at these settings in pH 2.8 buffer with Compound A in the presence/absence of the photo-stabilizers. […] Direct sunlight was modeled using a Q-Sun Xenon Test Chamber (Q-Lab Model No. Xe-1-SC) at an irradiance setting of 350 mW/m^2 @340 nm, 25° C. Test samples were irradiated in the Q-Sun at these settings in pH 2.8 buffer with 25 μM of Compound A in the presence/absence of the photo-stabilizers at a concentration of 100 ppm. […] Direct sunlight was modeled using a Q-Sun Xenon Test Chamber (Q-Lab Model No. Xe-1-SC) at an irradiance setting of 350 mW/m^2 @340 nm, 25° C. Test samples were irradiated in the Q-Sun at these settings in pH 2.8 buffer with sweet enhancer Compound E in the presence/absence of the photostabilizers.

[2] = % of 25 μM Compound A remaining with the cinnamic acid or coumarin derivative at 100 ppm (Table 4), pH 2.8 buffer, Q-Sun 350 mW/m^2 @340 nm, 25° C.

melting point: 173 to 175 °C
Compound: Cc1nc2cccc(OCC(C)(C)NC(=O)CN3CCOCC3)c2c(N)c1C(=O)O [Example 149, 4-amino-2-methyl-5-(2-methyl-2-(2-morpholinoacetamido)propoxy)quinoline-3-carboxylic Acid]

melting point: 175 to 178 °C
Compound: Cc1nc2cccc(OCC(C)(C)NC(=O)CC3CCOCC3)c2c(N)c1C(=O)O [Example 145, 4-amino-2-methyl-5-(2-methyl-2-(2-(tetrahydro-2H-pyran-4-yl)acetamido)-propoxy)quinoline-3-carboxylic Acid]

melting point: 177 to 179 °C
Compound: Cc1nc2cccc(OCC(C)(C)C(=O)NCC3CC3)c2c(N)c1C(=O)O [Example 146, 4-amino-5-(3-((cyclopropylmethyl)amino)-2,2-dimethyl-3-oxopropoxy)-2-methylquinoline-3-carboxylic Acid]

melting point: 225 to 226 °C
Compound: CCCNC(=O)C(C)(C)COc1cccc2c1C(N)=NS(=O)(=O)N2 [Example 197, 3-(4-Amino-2,2-dioxide-1H-benzo[c][1,2,6]thiadiazin-5-yloxy)-2′,2′-dimethyl-N-propylpropanamide]

% Remaining @ 1 hr ([1]; buffer, 1 h, 25 ppm, pH 2.8): 89.62% | % Remaining @ 2 hrs ([1]; buffer, 2 h, 25 ppm, pH 2.8): 80.75% | % Remaining @ 4 hrs ([1]; buffer, 4 h, 25 ppm, pH 2.8): 64.60% | % Remaining @ 6 hrs ([1]; buffer, 6 h, 25 ppm, pH 2.8): 50.64%
Compound: O=C(CCc1ccc(O)cc1)c1c(O)cc(O)cc1O [phloretin]

melting point: 227 to 229 °C
Compound: Cc1nc2cccc(OCC(C)(C)C(=O)NC3CC3)c2c(N)c1C(=O)O [Example 135, 4-amino-5-(3-(cyclopropylamino)-2,2-dimethyl-3-oxopropoxy)-2-methyl-quinoline-3-carboxylic Acid]

melting point: 170 to 173 °C
Compound: Cc1nc2cccc(OCC(C)(C)NC(=O)C3CCOCC3)c2c(N)c1C(=O)O [Example 140, 4-amino-2-methyl-5-(2-methyl-2-(tetrahydro-2H-pyran-4-carboxamido)-propoxy)quinoline-3-carboxylic Acid]

melting point: 168 to 170 °C
Compound: CCC(=O)N1CCC(COc2cccc3nc(C)c(C(=O)O)c(N)c23)CC1 [Example 153, 4-amino-2-methyl-5-((1-propionylpiperidin-4-yl)methoxy)quinoline-3-carboxylic Acid]

melting point: 220 to 221.5 °C
Compound: Cc1nc2cccc(OC3CCCCC3)c2c(N)c1C(=O)O [Example 36, 4-amino-5-(cyclohexyloxy)-2-methylquinoline-3-carboxylic Acid]

melting point: 189 to 193 °C
Compound: CCC(=O)NC(C)(C)COc1cccc2nc(C)c(C(=O)O)c(N)c12 [Example 141, 4-amino-2-methyl-5-(2-methyl-2-propionamidopropoxy)quinoline-3-carboxylic Acid]

melting point: > 260 °C
Compound: Nc1nc(=O)[nH]c2sc3c(c12)CCOC3 [Example 159, 4-Amino-5,6-(5′,7′-dihydro-4′H-[2′,3′-c]pyrano)thieno[2,3-d]-pyrimidine-2(1H)-one]

melting point: 183 to 185 °C
Compound: Cc1nc2cccc(O[C@H]3CC[C@H](NC(=O)C(C)C)CC3)c2c(N)c1C(=O)O [Example 137, 4-amino-5-(((1,4)-trans-4-isobutyramidocyclohexyl)oxy)-2-methylquinoline-3-carboxylic Acid]

% Remaining @ 1 hr ([1]; buffer, 1 h, 100 ppm, pH 2.8): 95.41% | % Remaining @ 2 hrs ([1]; buffer, 2 h, 100 ppm, pH 2.8): 96.49% | % Remaining @ 4 hrs ([1]; buffer, 4 h, 100 ppm, pH 2.8): 93.43% | % Remaining @ 6 hrs ([1]; buffer, 6 h, 100 ppm, pH 2.8): 93.85%
Compound: COc1cc(/C=C/C(=O)O)ccc1O [ferulic acid]

melting point: 235 to 236 °C
Compound: CC(C)(COc1cccc2c1C(N)=NS(=O)(=O)N2)NC(=O)c1ccccc1 [Example 198, N-(1-(4-amino-2,2-dioxide-1H-benzo[c][1,2,6]thiadiazin-5-yloxy)-2′-methylpropan-2′-yl)benzamide]

melting point: 195 to 198 °C
Compound: CNC(=O)[C@H]1CC[C@H](Oc2cccc3nc(C)c(C(=O)O)c(N)c23)CC1 [Example 154, 4-amino-2-methyl-5-(((1,4)-trans-4-(methylcarbamoyl)cyclohexyl)oxy)quinoline-3-carboxylic Acid]

melting point: 184 to 186 °C
Compound: Cc1nc2cccc(OCC(C)(C)NC(=O)C(C)C)c2c(N)c1C(=O)O [Example 139, 4-amino-5-(2-isobutyramido-2-methylpropoxy)-2-methylquinoline-3-carboxylic Acid]

% Remaining @ 1 hr ([1]; buffer, 1 h, 50 ppm, pH 2.8): 90.42% | % Remaining @ 2 hrs ([1]; buffer, 2 h, 50 ppm, pH 2.8): 75.92% | % Remaining @ 4 hrs ([1]; buffer, 4 h, 50 ppm, pH 2.8): 55.54% | % Remaining @ 6 hrs ([1]; buffer, 6 h, 50 ppm, pH 2.8): 41.50%
Compound: C[C@@H]1O[C@@H](O[C@H]2[C@H](Oc3cc(O)c4c(c3)O[C@H](c3ccc(O)cc3)CC4=O)O[C@H](CO)[C@@H](O)[C@@H]2O)[C@H](O)[C@H](O)[C@H]1O [naringin]

Compound: Cc1nc2cccc(OCC(C)C)c2c(N)c1C(=O)O [Example 41, 4-amino-5-isobutoxy-2-methylquinoline-3-carboxylic Acid]
melting point: 203.7 °C

melting point: 195 to 199 °C
Compound: CCCCNC(=O)C(C)(C)COc1cccc2nc(C)c(C(=O)O)c(N)c12 [Example 147, 4-amino-5-(3-(butylamino)-2,2-dimethyl-3-oxopropoxy)-2-methylquinoline-3-carboxylic Acid]

% Remaining @ 1 hr ([1]; buffer, 1 h, 12.5 ppm, pH 2.8): 90.83% | % Remaining @ 2 hrs ([1]; buffer, 2 h, 12.5 ppm, pH 2.8): 82.75% | % Remaining @ 4 hrs ([1]; buffer, 4 h, 12.5 ppm, pH 2.8): 57.70% | % Remaining @ 6 hrs ([1]; buffer, 6 h, 12.5 ppm, pH 2.8): 24.54%
Compound: COc1cc([C@@H]2CC(=O)c3c(O)cc(O)cc3O2)ccc1O [homoeriodictol, homoeriodictyol]

melting point: 183 to 187 °C
Compound: Cc1nc2cccc(OCC(C)(C)C(=O)NC3CCC3)c2c(N)c1C(=O)O [Example 136, 4-amino-5-(3-(cyclobutylamino)-2,2-dimethyl-3-oxopropoxy)-2-methylquinoline-3-carboxylic Acid]

% of compound degraded after 6 hr of irradiation ([1]; pH 2.8): about 80%
Compound: COc1ccc2ncc(C(=O)O)c(N)c2c1 [Compound B]

% Remaining @ 4 hrs ([1]; buffer, 4 h, 100 ppm, pH 2.8): 100.07% | % Remaining @ 6 hrs ([1]; buffer, 6 h, 100 ppm, pH 2.8): 95.72%
Compound: COc1cc2ccc(=O)oc2cc1O [scopoletin]

Compound: COc1cc(C=CC(=O)O)cc(OC)c1O (stereo in doubt) [sinapinic acid]
% Remaining @ 1 hr [1, 2]: 100.00% | % Remaining @ 2 hrs [1, 2]: 99.98% | % Remaining @ 4 hrs [1, 2]: 100.12% | % Remaining @ 6 hrs [1, 2]: 98.52%

% Remaining @ 1 hr ([1]; buffer, 1 h, 100 ppm, pH 2.8): 98.02% | % Remaining @ 2 hrs ([1]; buffer, 2 h, 100 ppm, pH 2.8): 99.54% | % Remaining @ 4 hrs ([1]; buffer, 4 h, 100 ppm, pH 2.8): 98.74% | % Remaining @ 6 hrs ([1]; buffer, 6 h, 100 ppm, pH 2.8): 95.55%
Compound: O=C(O)/C=C/c1ccc(O)c(O)c1 [caffeic acid]

% Remaining @ 1 hr ([1]; buffer, 1 h, 50 ppm, pH 2.8): 91.42% | % Remaining @ 2 hrs ([1]; buffer, 2 h, 50 ppm, pH 2.8): 82.53% | % Remaining @ 4 hrs ([1]; buffer, 4 h, 50 ppm, pH 2.8): 66.95% | % Remaining @ 6 hrs ([1]; buffer, 6 h, 50 ppm, pH 2.8): 56.72%
Compound: COc1ccc(CCC(=O)c2c(O)cc(O[C@@H]3O[C@H](CO)[C@@H](O)[C@H](O)[C@H]3O[C@@H]3O[C@@H](C)[C@H](O)[C@@H](O)[C@H]3O)cc2O)cc1O [neohesperidin dihydrochalcone]

% Remaining @ 1 hr ([1]; buffer, 1 h, 100 ppm, pH 2.8): 99.13% | % Remaining @ 2 hrs ([1]; buffer, 2 h, 100 ppm, pH 2.8): 99.76% | % Remaining @ 4 hrs ([1]; buffer, 4 h, 100 ppm, pH 2.8): 98.13%
Compound: O=c1ccc2ccc(O)c(O)c2o1 [daphnetin]
